± gives the expanded uncertainty stated by the source.
Test: xn = mol fraction of the nth substance listed
Conditions: 101 kPa, Liquid; for viscosity: Concentric cylinders viscometry; for mass density: Vibrating tube method

CCCn1cc[n+](C)c1.F[B-](F)(F)F [1-propyl-3-methylimidazolium tetrafluoroborate] + CCCCCCn1cc[n+](C)c1.F[B-](F)(F)F
Conditions	mass density [kg/m3]	viscosity [mPa·s]
293.15 K, x1 = 0.1006	1154.7 ± 1.1	257.8 ± 22
293.15 K, x1 = 0.2005	1162.5 ± 1.1	233.5 ± 19
293.15 K, x1 = 0.2995	1170.4 ± 1.1	212.7 ± 18
293.15 K, x1 = 0.3996	1179.1 ± 1.1	195.9 ± 16
293.15 K, x1 = 0.4991	1188.1 ± 1.1	176.5 ± 14
293.15 K, x1 = 0.601	1197.2 ± 1.1	158.4 ± 13
293.15 K, x1 = 0.7001	1207.1 ± 1.1	141.4 ± 12
293.15 K, x1 = 0.8	1217.3 ± 1.1	125.1 ± 10
293.15 K, x1 = 0.8987	1228 ± 1.1	110.2 ± 9
293.15 K, x1 = 1	1239.3 ± 1.1	95.44 ± 7.7
298.15 K, x1 = 0.1006	1151.2 ± 1.1	190.4 ± 16
298.15 K, x1 = 0.2005	1159.1 ± 1.1	173.1 ± 14
298.15 K, x1 = 0.2995	1167.1 ± 1.1	158.5 ± 13
298.15 K, x1 = 0.3996	1175.6 ± 1.1	146.3 ± 12
298.15 K, x1 = 0.4991	1184.5 ± 1.1	132.5 ± 11
298.15 K, x1 = 0.601	1193.7 ± 1.1	119.6 ± 9.8
298.15 K, x1 = 0.7001	1203.6 ± 1.1	107.2 ± 8.7
298.15 K, x1 = 0.8	1213.9 ± 1.1	95.66 ± 7.8
298.15 K, x1 = 0.8987	1224.5 ± 1.1	84.81 ± 6.9
298.15 K, x1 = 1	1235.7 ± 1.1	74.04 ± 6
303.15 K, x1 = 0.1006	1147.8 ± 1.1	143.5 ± 12
303.15 K, x1 = 0.2005	1155.6 ± 1.1	131.1 ± 11
303.15 K, x1 = 0.2995	1163.5 ± 1.1	120.5 ± 9.8
303.15 K, x1 = 0.3996	1172 ± 1.1	111.6 ± 9.1
303.15 K, x1 = 0.4991	1181 ± 1.1	101.6 ± 8.3
303.15 K, x1 = 0.601	1190.2 ± 1.1	92.16 ± 7.5
303.15 K, x1 = 0.7001	1200 ± 1	83.12 ± 6.7
303.15 K, x1 = 0.8	1210.2 ± 1.1	74.61 ± 6
303.15 K, x1 = 0.8987	1220.8 ± 1.1	66.57 ± 5.4
303.15 K, x1 = 1	1232 ± 1.1	58.59 ± 4.7
308.15 K, x1 = 0.1006	1144.4 ± 1.1	110.3 ± 9
308.15 K, x1 = 0.2005	1152.1 ± 1.1	101.2 ± 8.2
308.15 K, x1 = 0.2995	1160.1 ± 1.1	93.37 ± 7.6
308.15 K, x1 = 0.3996	1168.6 ± 1.1	86.79 ± 7
308.15 K, x1 = 0.4991	1177.4 ± 1.1	79.34 ± 6.4
308.15 K, x1 = 0.601	1186.7 ± 1.1	72.34 ± 5.9
308.15 K, x1 = 0.7001	1196.4 ± 1.1	65.59 ± 5.3
308.15 K, x1 = 0.8	1206.6 ± 1.1	59.23 ± 4.8
308.15 K, x1 = 0.8987	1217.2 ± 1.1	53.19 ± 4.3
308.15 K, x1 = 1	1228.3 ± 1.1	47.16 ± 3.8
313.15 K, x1 = 0.1006	1141 ± 1	86.32 ± 7
313.15 K, x1 = 0.2005	1148.6 ± 1.1	79.47 ± 6.4
313.15 K, x1 = 0.2995	1156.6 ± 1.1	73.61 ± 6
313.15 K, x1 = 0.3996	1165.1 ± 1.1	68.66 ± 5.5
313.15 K, x1 = 0.4991	1173.9 ± 1.1	63.07 ± 5.1
313.15 K, x1 = 0.601	1183.2 ± 1.1	57.75 ± 4.7
313.15 K, x1 = 0.7001	1192.8 ± 1.1	52.63 ± 4.2
313.15 K, x1 = 0.8	1203 ± 1.1	47.79 ± 3.9
313.15 K, x1 = 0.8987	1213.5 ± 1.1	43.19 ± 3.5
313.15 K, x1 = 1	1224.7 ± 1.1	38.56 ± 3.1
318.15 K, x1 = 0.1006	1137.6 ± 1	68.62 ± 5.5
318.15 K, x1 = 0.2005	1145.2 ± 1.1	63.43 ± 5.1
318.15 K, x1 = 0.2995	1153.1 ± 1.1	58.96 ± 4.8
318.15 K, x1 = 0.3996	1161.6 ± 1.1	55.18 ± 4.5
318.15 K, x1 = 0.4991	1170.4 ± 1.1	50.91 ± 4.1
318.15 K, x1 = 0.601	1179.7 ± 1.1	46.8 ± 3.8
318.15 K, x1 = 0.7001	1189.3 ± 1.1	42.87 ± 3.5
318.15 K, x1 = 0.8	1199.4 ± 1.1	39.14 ± 3.1
318.15 K, x1 = 0.8987	1209.9 ± 1.1	35.56 ± 2.9
318.15 K, x1 = 1	1221 ± 1.1	31.98 ± 2.6
323.15 K, x1 = 0.1006	1134.2 ± 1	55.36 ± 4.5
323.15 K, x1 = 0.2005	1141.7 ± 1.1	51.35 ± 4.1
323.15 K, x1 = 0.2995	1149.6 ± 1.1	47.9 ± 3.9
323.15 K, x1 = 0.3996	1158.1 ± 1.1	44.99 ± 3.6
323.15 K, x1 = 0.4991	1166.9 ± 1.1	41.66 ± 3.4
323.15 K, x1 = 0.601	1176.1 ± 1.1	38.47 ± 3.1
323.15 K, x1 = 0.7001	1185.8 ± 1.1	35.41 ± 2.9
323.15 K, x1 = 0.8	1195.8 ± 1.1	32.48 ± 2.6
323.15 K, x1 = 0.8987	1206.2 ± 1.1	29.67 ± 2.4
323.15 K, x1 = 1	1217.4 ± 1.1	26.83 ± 2.2
328.15 K, x1 = 0.1006	1130.8 ± 1	45.26 ± 3.6
328.15 K, x1 = 0.2005	1138.3 ± 1	42.13 ± 3.4
328.15 K, x1 = 0.2995	1146.2 ± 1.1	39.43 ± 3.2
328.15 K, x1 = 0.3996	1154.7 ± 1.1	37.15 ± 3
328.15 K, x1 = 0.4991	1163.4 ± 1.1	34.53 ± 2.8
328.15 K, x1 = 0.601	1172.6 ± 1.1	32.02 ± 2.6
328.15 K, x1 = 0.7001	1182.3 ± 1.1	29.61 ± 2.4
328.15 K, x1 = 0.8	1192.1 ± 1.1	27.28 ± 2.2
328.15 K, x1 = 0.8987	1202.7 ± 1.1	25.04 ± 2
328.15 K, x1 = 1	1213.8 ± 1.1	22.77 ± 1.8
333.15 K, x1 = 0.1006	1127.4 ± 1	37.44 ± 3
333.15 K, x1 = 0.2005	1134.9 ± 1	34.97 ± 2.8
333.15 K, x1 = 0.2995	1142.7 ± 1.1	32.83 ± 2.6
333.15 K, x1 = 0.3996	1151.3 ± 1.1	31.04 ± 2.5
333.15 K, x1 = 0.4991	1159.9 ± 1.1	28.95 ± 2.3
333.15 K, x1 = 0.601	1169.2 ± 1.1	26.95 ± 2.2
333.15 K, x1 = 0.7001	1178.7 ± 1.1	25.03 ± 2
333.15 K, x1 = 0.8	1188.6 ± 1.1	23.15 ± 1.9
333.15 K, x1 = 0.8987	1199.1 ± 1.1	21.37 ± 1.7
333.15 K, x1 = 1	1210.2 ± 1.1	19.54 ± 1.6
338.15 K, x1 = 0.1006	1124.1 ± 1	31.31 ± 2.5
338.15 K, x1 = 0.2005	1131.5 ± 1	29.33 ± 2.4
338.15 K, x1 = 0.2995	1139.3 ± 1	27.63 ± 2.2
338.15 K, x1 = 0.3996	1147.8 ± 1.1	26.21 ± 2.1
338.15 K, x1 = 0.4991	1156.5 ± 1.1	24.53 ± 2
338.15 K, x1 = 0.601	1165.7 ± 1.1	22.92 ± 1.8
338.15 K, x1 = 0.7001	1175.2 ± 1.1	21.38 ± 1.7
338.15 K, x1 = 0.8	1185.2 ± 1.1	19.85 ± 1.6
338.15 K, x1 = 0.8987	1195.5 ± 1.1	18.4 ± 1.5
338.15 K, x1 = 1	1206.6 ± 1.1	16.92 ± 1.4
343.15 K, x1 = 0.1006	1120.7 ± 1	26.45 ± 2.1
343.15 K, x1 = 0.2005	1128.1 ± 1	24.83 ± 2
343.15 K, x1 = 0.2995	1135.9 ± 1	23.46 ± 1.9
343.15 K, x1 = 0.3996	1144.4 ± 1.1	22.3 ± 1.8
343.15 K, x1 = 0.4991	1153 ± 1.1	20.96 ± 1.7
343.15 K, x1 = 0.601	1162.2 ± 1.1	19.65 ± 1.6
343.15 K, x1 = 0.7001	1171.7 ± 1.1	18.4 ± 1.5
343.15 K, x1 = 0.8	1181.6 ± 1.1	17.19 ± 1.4
343.15 K, x1 = 0.8987	1192 ± 1.1	15.98 ± 1.3
343.15 K, x1 = 1	1203 ± 1.1	14.77 ± 1.2

From the NIST ThermoML archive (doi:10.1021/je400332j)
